According to ChEMBL document CHEMBL1201862, “PubChem BioAssay data set” (2004):
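Exposure lasted 48 hours, with cells grown in 96-well plates and compounds tested at five concentrations. Here, GI50 denotes the concentration required for 50% inhibition of growth.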 Active and inactive are the calls of the source. Rule as the data show it: active = GI50 up to about 1.1 µM and inactive = higher.

How the values were obtained:
Assay in all cases: NCI anticancer screen, dose series, 48 h
[1] = tested on: NCI-H226
[2] = tested on: RPMI-8226
[3] = tested on: ACHN
[4] = tested on: SK-MEL-5
[5] = tested on: COLO 205
[6] = tested on: SK-MEL-28
[7] = tested on: UACC-257
[8] = tested on: HOP-62
[9] = tested on: SK-OV-3
[10] = tested on: A549
[11] = tested on: HCT-116
[12] = tested on: DU-145
[13] = tested on: SF-268
[14] = tested on: HOP-92
[15] = tested on: MDA-N
[16] = tested on: HCC 2998
[17] = tested on: SN12C
[18] = tested on: LOX IMVI
[19] = tested on: OVCAR-3
[20] = tested on: KM12
[21] = tested on: HCT-15
[22] = tested on: M14
[23] = tested on: CCRF-CEM
[24] = tested on: TK-10
[25] = tested on: NCI/ADR-RES
[26] = tested on: SNB-75
[27] = tested on: NCI-H522
[28] = tested on: HL-60
[29] = tested on: OVCAR-8
[30] = tested on: UO-31
[31] = tested on: Malme-3M
[32] = tested on: 786-0
[33] = tested on: HT-29
[34] = tested on: SF-295
[35] = tested on: SW-620
[36] = tested on: MDA-MB-231
[37] = tested on: T47D
[38] = tested on: SNB-19
[39] = tested on: SR
[40] = tested on: NCI-H23
[41] = tested on: MOLT-4
[42] = tested on: A498
[43] = tested on: RXF 393
[44] = tested on: NCI-H460
[45] = tested on: OVCAR-4
[46] = tested on: EKVX
[47] = tested on: Hs-578T
[48] = tested on: SF-539
[49] = tested on: UACC-62
[50] = tested on: IGROV-1
[51] = tested on: CAKI-1
[52] = tested on: MDA-MB-435
[53] = tested on: SK-MEL-2
[54] = tested on: U-251
[55] = tested on: K562
[56] = tested on: OVCAR-5
[57] = tested on: MCF7
[58] = tested on: PC-3

SMILES: CCOP(=O)(OCC)C(Nc1ccc(Cl)cc1)c1ccc(F)cc1 (stereo not given)
- GI50 [1]: 25.8 µM (inactive)
- GI50 [2]: 22.5 µM (inactive)
- GI50 [3]: 28.4 µM (inactive)
- GI50 [4]: 17.3 µM (inactive)
- GI50 [5]: 29.4 µM (inactive)
- GI50 [6]: 18.4 µM (inactive)
- GI50 [7]: 18.5 µM (inactive)
- GI50 [8]: 19 µM (inactive)
- GI50 [9]: 41.7 µM (inactive)
- GI50 [10]: 31 µM (inactive)
- GI50 [11]: 19.2 µM (inactive)
- GI50 [12]: 24.5 µM (inactive)
- GI50 [13]: 20.1 µM (inactive)
- GI50 [14]: 22 µM (inactive)
- GI50 [15]: 19.9 µM (inactive)
- GI50 [16]: 22 µM (inactive)
- GI50 [17]: 18.4 µM (inactive)
- GI50 [18]: 15.7 µM (inactive)
- GI50 [19]: 29.5 µM (inactive)
- GI50 [20]: 31 µM (inactive)
- GI50 [21]: 26.7 µM
- GI50 [22]: 16.6 µM (inactive)
- GI50 [23]: 29.5 µM (inactive)
- GI50 [24]: 42.7 µM (inactive)
- GI50 [25]: 22.8 µM (inactive)
- GI50 [26]: 20.5 µM (inactive)
- GI50 [27]: 20.3 µM (inactive)
- GI50 [28]: 18.6 µM (inactive)
- GI50 [29]: 28.8 µM (inactive)
- GI50 [30]: 20.7 µM (inactive)
- GI50 [31]: 19.1 µM (inactive)
- GI50 [32]: 19.3 µM (inactive)
- GI50 [33]: 22 µM (inactive)
- GI50 [34]: 19.8 µM (inactive)
- GI50 [35]: > 10 µM (inactive)
- GI50 [36]: 21.2 µM (inactive)
- GI50 [37]: 16.6 µM (inactive)
- GI50 [38]: 26.7 µM (inactive)
- GI50 [39]: 40.8 µM (inactive)
- GI50 [40]: 16.3 µM (inactive)
- GI50 [41]: 23.1 µM (inactive)
- GI50 [42]: 18.5 µM (inactive)
- GI50 [43]: 21.2 µM (inactive)
- GI50 [44]: 19.5 µM (inactive)
- GI50 [45]: 36.2 µM (inactive)
- GI50 [46]: 29.2 µM (inactive)
- GI50 [47]: 20.8 µM (inactive)
- GI50 [48]: 22 µM (inactive)
- GI50 [49]: 4.7 µM (inactive)
- GI50 [50]: > 10 µM (inactive)
- GI50 [51]: 22.3 µM (inactive)
- GI50 [52]: 15.7 µM (inactive)
- GI50 [53]: 14.6 µM (inactive)
- GI50 [54]: 18.2 µM (inactive)
- GI50 [55]: 25.5 µM (inactive)

SMILES: CCCCCCCCCC[C@@H](O)[C@@H]1CC[C@@H]([C@@H]2CC[C@@H]([C@@H](O)CCCCCCCCCCC(O)CC3=CC(C)OC3=O)O2)O1 (stereo not given in full)
- GI50 [1]: 0.173 µM (active)
- GI50 [56]: 0.128 µM (active)
- GI50 [2]: 1.26 µM (inactive)
- GI50 [3]: 0.931 µM (active)
- GI50 [4]: 0.333 µM (active)
- GI50 [5]: > 10 µM (inactive)
- GI50 [6]: > 10 µM (inactive)
- GI50 [7]: 2.42 µM (inactive)
- GI50 [57]: 1.36 µM (inactive)
- GI50 [8]: 0.655 µM (active)
- GI50 [9]: > 10 µM (inactive)
- GI50 [10]: 2.53 µM (inactive)
- GI50 [11]: 0.551 µM (active)
- GI50 [12]: 3.98 µM (inactive)
- GI50 [13]: > 10 µM (inactive)
- GI50 [16]: 4.84 µM (inactive)
- GI50 [17]: > 10 µM (inactive)
- GI50 [18]: 1.05 µM (active)
- GI50 [20]: 3.53 µM (inactive)
- GI50 [21]: 5.89 µM
- GI50 [22]: > 10 µM (inactive)
- GI50 [23]: 2.47 µM (inactive)
- GI50 [24]: > 10 µM (inactive)
- GI50 [25]: 0.729 µM (active)
- GI50 [26]: > 10 µM (inactive)
- GI50 [27]: 0.177 µM (active)
- GI50 [28]: 0.116 µM (active)
- GI50 [29]: 4.43 µM (inactive)
- GI50 [58]: 5.04 µM (inactive)
- GI50 [30]: 0.562 µM (active)
- GI50 [31]: 1.81 µM (inactive)
- GI50 [33]: > 10 µM (inactive)
- GI50 [34]: 2.72 µM (inactive)
- GI50 [35]: 8.2 µM (inactive)
- GI50 [36]: 2.32 µM (inactive)
- GI50 [37]: 0.984 µM (active)
- GI50 [39]: 1.4 µM (inactive)
- GI50 [41]: 1.26 µM (inactive)
- GI50 [42]: 5.61 µM (inactive)
- GI50 [43]: 2.69 µM (inactive)
- GI50 [44]: 1.28 µM (inactive)
- GI50 [45]: 1.38 µM (inactive)
- GI50 [46]: 3.03 µM (inactive)
- GI50 [47]: > 10 µM (inactive)
- GI50 [48]: > 10 µM (inactive)
- GI50 [49]: 3.79 µM (inactive)
- GI50 [50]: > 10 µM (inactive)
- GI50 [55]: 0.248 µM (active)

SMILES: C=C1CCN2CC[C@@H](OC(=O)/C(C)=C\C)[C@@H]12
- GI50 [1]: > 100 µM (inactive)
- GI50 [56]: > 100 µM (inactive)
- GI50 [2]: > 100 µM (inactive)
- GI50 [3]: > 100 µM (inactive)
- GI50 [4]: > 100 µM (inactive)
- GI50 [5]: > 100 µM (inactive)
- GI50 [6]: > 100 µM (inactive)
- GI50 [7]: > 100 µM (inactive)
- GI50 [57]: > 100 µM (inactive)
- GI50 [8]: > 100 µM (inactive)
- GI50 [9]: > 100 µM (inactive)
- GI50 [10]: > 100 µM (inactive)
- GI50 [11]: > 100 µM (inactive)
- GI50 [12]: > 100 µM (inactive)
- GI50 [13]: > 100 µM (inactive)
- GI50 [14]: > 100 µM (inactive)
- GI50 [15]: > 100 µM (inactive)
- GI50 [16]: > 100 µM (inactive)
- GI50 [17]: > 100 µM (inactive)
- GI50 [18]: > 100 µM (inactive)
- GI50 [19]: > 100 µM (inactive)
- GI50 [20]: > 100 µM (inactive)
- GI50 [21]: > 100 µM
- GI50 [22]: > 100 µM (inactive)
- GI50 [23]: > 100 µM (inactive)
- GI50 [24]: > 100 µM (inactive)
- GI50 [25]: > 100 µM (inactive)
- GI50 [26]: > 100 µM (inactive)
- GI50 [27]: > 100 µM (inactive)
- GI50 [29]: > 100 µM (inactive)
- GI50 [58]: > 100 µM (inactive)
- GI50 [30]: > 100 µM (inactive)
- GI50 [31]: > 100 µM (inactive)
- GI50 [32]: > 100 µM (inactive)
- GI50 [33]: 66.2 µM (inactive)
- GI50 [34]: > 100 µM (inactive)
- GI50 [35]: > 100 µM (inactive)
- GI50 [36]: > 100 µM (inactive)
- GI50 [37]: > 100 µM (inactive)
- GI50 [38]: > 100 µM (inactive)
- GI50 [39]: > 100 µM (inactive)
- GI50 [40]: > 100 µM (inactive)
- GI50 [41]: > 100 µM (inactive)
- GI50 [42]: > 100 µM (inactive)
- GI50 [43]: > 100 µM (inactive)
- GI50 [44]: > 100 µM (inactive)
- GI50 [45]: > 100 µM (inactive)
- GI50 [46]: > 100 µM (inactive)
- GI50 [47]: > 100 µM (inactive)
- GI50 [48]: > 100 µM (inactive)
- GI50 [49]: > 100 µM (inactive)
- GI50 [50]: > 100 µM (inactive)
- GI50 [51]: > 100 µM (inactive)
- GI50 [52]: > 100 µM (inactive)
- GI50 [53]: > 100 µM (inactive)
- GI50 [54]: > 100 µM (inactive)
- GI50 [55]: > 100 µM (inactive)
